Laboratory results from patent publication US9682993B2, “Anticancer compounds” (ST. JUDE CHILDREN'S RESEARCH HOSPITAL, priority 2012, dated 2017).
Like-named read-outs stand apart in the source and are kept apart here.

Columns and labels:
[1] = tested on: MDM2 alternative splicing in Rh18 cells; test: In vitro alternative splicing assay (MDM2, RT-PCR); assay type: cell-based; conditions: Rh18 cells, 8 h exposure; Table II
Experimental: Briefly, following an 8 h exposure of exponentially growing cells to drug, total RNA was isolated using TRIzol reagent (Invitrogen, Carlsbad, Calif.). Total RNA (1 μg) was used to convert the mRNA to cDNA by using random primers, Oligo(dT)16 and Omniscript Reverse Transcription Kit (Qiagen, Germantown, Md.). PCR analyses were performed using specific oligonucleotides (see Table I) and standard amplification protocols. PCR products were separated by agarose gel electrophoresis, visualized by ethidium bromide staining on an UV transilluminator, and recorded. PCR band sizes were calculated by comparing them to the standard EZ Load 100-bp PCR Molecular Ruler (BioRad Laboratories, Hercules, Calif.).

JeKo1 = test: In vitro cytotoxicity analysis, JeKo1; assay type: cell-based; conditions: Homo sapiens, JeKo-1
Description: (§1) The A549 lung cancer, WiDr colorectal cancer, MCF-7 breast cancer, PC-3 prostate cancer, and OVCAR-3 ovarian cancer cell lines were purchased from the American Type Culture Collection (ATCC, Manassas, Va.) and were maintained in growth media as recommended by the ATCC. The JeKo-1 and JVM-2 mantle cell lymphoma cell lines were purchased from the DSMZ (Brunswick, Germany) and were maintained in growth media as recommended by the vendor. The pediatric rhabdomyosarcoma Rh18 cell line was provided y Dr. P. Houghton (Ohio State University—Nationwide Children's Hospital, Columbus, Ohio) and were maintained in growth media as recommended by Dr. Houghton. All cell culture media were supplemented with L-glutamine and penicillin/streptomycin. All cells were grown under standard culture conditions in CO2 incubators, at 37° C., with 5% CO2, and 100% relative humidity.
(§2) Cell viabilities were determined by measuring the cleavage of (sodium 3′-[1-(phenylaminocarbonyl)-3,4-tetrazolium]-bis(4-methoxy-6-nitro)benzene sulfonic acid hydrate) (XTT) to a water-soluble orange formazan by mitochondrial dehydrogenase, following the manufacturer's instructions (Roche Applied Science, Indianapolis, Ind.). Briefly, cell lines were seeded at various cell densities depending on the cell type. The adherent cell lines were allowed to adhere overnight before compound addition, whereas the suspension cell lines were seeded the day of compound addition. Stock concentrations of the compounds were made in DMSO, diluted in culture media and subsequently added to the plates at various final concentrations, then incubated for 72 hours. After the incubation period, the XTT labeling reagent, containing the electron-coupling reagent, was added to each well and incubated for 4 hours. The absorbance of each well was then read at 490 nm with a reference wavelength of 690 nm using a VersaMax™ microplate reader (Sunnyvale, Calif.). Data are expressed as the percentage of growth compared to vehicle-treated cells, as calculated from absorbance and corrected for background absorbance.
(§3) Alternatively, cell lines were seeded in 100 μL cell culture medium in 96-well plates. Depending on the cell proliferation rate, cells were seeded at 4,000 to 6,000 cells/well. Suspension cell cultures were initiated with 20,000 cells/well. The cells were incubated overnight at 37° C., and then the drug treatments were started by adding 50 μL medium containing the corresponding drug dilution and DMSO. The final concentration of DMSO onto the cells was 0.5% v/v in all wells. The cells viability was determined using the CellTiter-Glo Luminescent Cell Viability Assay (Promega, Madison, Wis.). The CellTiter-Glo reagent was prepared according to the manufacturer's instructions, and then 50 μL reagent was added to each well for 1 h at rt. The luminescence was measured on an Envision Multilabel Plate Reader (PerkinElmer, Waltham, Mass.). The IC50 values were calculated from the dose-response curve analysis with GraphPad Prism 6.01 (GraphPad Software, La Jolla, Calif.) using the nonlinear regression model 4 Parameter Logistic. Nine concentrations were generated by 1:2 serial dilutions for each IC50 assay. Each drug concentration was evaluated in triplicate or quadruplicate.

[2] = Mouse plasma stability (HPLC); assay type: in vitro ADME; conditions: mouse plasma at 37° C.
[3] = Solubility in phosphate buffered saline (HPLC); assay type: physicochemical; conditions: for solubility: aqueous buffer, read-out: Buffer Soluble
[4] = tested on: cytotoxicity or splicing modulation; test: Rapid onset of cytotoxicity or splicing modulation; assay type: cell-based; conditions: maximum cytotoxicity or splicing modulation within 5 hours of drug treatment
Experimental: The cell were seeded in of 100 μl of medium into 96-well plates (HeLa at 4×10^4 cell/well; SK_MEL_2 at 6×10^4 cell/well), they were allowed to attach overnight, and then treatments started by adding 50 μl of medium containing Sudemycin D6 to produce a final concentration of 1 μM and DMSO to 0.5% v/v final into the experimental well. Continuous drug treatments were run in the same plate, using concentrations of 0, 62.5, 125, 250, 500 & 1000 nM final. DMSO was added into all wells, including non-treated wells to 0.5% v/v final concentration. For wells where the drug was withdrawn, the medium was carefully aspirated after 1, 2, 3 and 4 hours after the addition of the drug, the cells were washed once with PBS and then 150 μl of fresh cell culture medium containing 0.5% v/v DMSO was added into all washed out wells. After 72 hours of the addition of drug, the cell viability was determined using CellTiter-Glo luminescent cell viability assay (Promega, Madison, Wis.), and Sudemycin D6 cytotoxicity was calculated as the percentage of cell proliferation inhibition against the control treatment DMSO.

PC3 = test: In vitro cytotoxicity analysis, PC3; assay type: cell-based; conditions: Homo sapiens
Description: as §1, §2, §3

SK-MEL-2 = test: Drug combination assay, SK-MEL-2; assay type: cell-based; conditions: for Interaction Type: listed drug combined with compound 19, Ineffective = drug IC50 much higher than 1 μM
Experimental: (§4) Preliminary cytotoxic screenings for each drug used in drug combination assays were performed to determine their cytotoxic dose range. […] Eight concentrations were established by 1:3 serial dilutions of the single drugs and their combinations with the splicing modulators. All drug concentrations were evaluated in triplicate in 96-well cell culture plates. Assays of individual drugs and drug combinations were run on the same tissue culture plate. Cell viability was determined using the CellTiter-Glo reagent.
(§5) Luminescence data obtained from the cell viability determinations were formatted per the requirements of the analytical software (viability data range: >0 and <1). The formatted data were analyzed with the software CalcuSyn 2.1 (Biosoft, Cambridge, UK), which provides quantitative CI values for the drug interaction analyses (see ranges in Supplementary Table S2).

HeLa = test: Drug combination assay, HeLa; assay type: cell-based
Experimental: as §4, with “reagent. Drug interactions, in terms of synergism, additive effect, or antagonism, were based on the drugs' Combination Index (CI) (Chou et al., Adv. Enzyme Regul. 1984, 22, 27).” for “reagent.”
as §5, with “S2). […] Therefore, in these two cases the drug interaction was evaluated by comparing the IC50 value of Sudemycin with that of the IC50 values resulting from the serial dilutions of the splicing modulator combined with a constant dose of the non-toxic drug.” for “S2).”

cell lines investigated = test: Drug combination assays, cell line not stated; assay type: cell-based
Experimental: as §4, §5

PC-3 = test: Drug combination assay, PC-3; assay type: cell-based; conditions: inhibitor + compound 19
Experimental: as §4, with “reagent. Drug interactions, in terms of synergism, additive effect, or antagonism, were based on the drugs' Combination Index (CI) (Chou et al., Adv. Enzyme Regul. 1984, 22, 27).” for “reagent.”
as §5, with “S2). […] Therefore, in these two cases the drug interaction was evaluated by comparing the IC50 value of Sudemycin with that of the IC50 values resulting from the serial dilutions of the splicing modulator combined with a constant dose of the non-toxic drug.” for “S2).”

Sk-N-AS = test: Drug combination assay, Sk-N-AS neuroblastoma; assay type: cell-based; conditions: Sk-N-AS; inhibitor + compound 19
Experimental: as §4, §5

WiDr = test: Drug combination assay, WiDr; assay type: cell-based; conditions: inhibitor + compound 19
Experimental: as §4, with “reagent. Drug interactions, in terms of synergism, additive effect, or antagonism, were based on the drugs' Combination Index (CI) (Chou et al., Adv. Enzyme Regul. 1984, 22, 27).” for “reagent.”
as §5, with “S2). […] Therefore, in these two cases the drug interaction was evaluated by comparing the IC50 value of Sudemycin with that of the IC50 values resulting from the serial dilutions of the splicing modulator combined with a constant dose of the non-toxic drug.” for “S2).”

[5] = PC-3, Table III, read-out: PC3 IC50

Structure (SMILES) | MDM2 Splicing Effects [1] | IC50 (JeKo1; Table II) [nM] | Plasma Stability [2] | Rapid Onset [4] | IC50 (JeKo1; Table III) [nM] | other results
CC(/C=C/[C@@H]1C[C@]2(CO2)CC(C)(C)O1)=C\C[C@H]1OC[C@@H](NC(=O)/C=C\[C@H](C)OC(=O)C(C)C)CO1 | Yes | 220 | No | No | – | solubility [3]: > 10 µM
CCCCNC(=O)O[C@@H](C)/C=C\C(=O)N[C@H]1CO[C@@H](C/C=C(C)/C=C/[C@@H]2C[C@]3(CO3)CC(C)(C)O2)OC1 | – | – | – | – | > 1000 | IC50 (PC3; [5]): > 10000 nM
CNC(=O)O[C@@H](C)/C=C\C(=O)N[C@H]1CC[C@@H](C/C=C(C)/C=C/[C@@H]2C[C@]3(CO3)CC(C)(C)O2)CC1 [drawing 208] | Yes | 22 | Yes (“Yes” indicates mouse plasma stability is >5 hours in mouse plasma at 37 °C as determined by HPLC.) | Yes (“Yes” indicates maximum cytotoxicity or splicing modulation is seen within 5 hours of drug treatment.) | – | solubility [3]: > 10 µM
CC(=O)O[C@@H](C)/C=C\C(=O)N[C@H]1CC[C@@H](C/C=C(C)/C=C/[C@@H]2C[C@]3(CO3)CC(C)(C)O2)CC1 | Yes | 100 | No | Yes (“Yes” indicates maximum cytotoxicity or splicing modulation is seen within 5 hours of drug treatment.) | – | Buffer Soluble [3]: No
CC(/C=C/C1C[C@]2(CO2)CC(C)(C)O1)=C\C[C@H]1OC[C@@H](NC(=O)/C=C\[C@H](C)OC(=O)N(C)C)CO1 (stereo partly drawn) | Yes | 300 | Yes (“Yes” indicates mouse plasma stability is >5 hours in mouse plasma at 37 °C as determined by HPLC.) | No | – | solubility [3]: > 10 µM
COCCNC(=O)O[C@@H](C)/C=C\C(=O)N[C@H]1CO[C@@H](C/C=C(C)/C=C/[C@@H]2C[C@]3(CO3)CC(C)(C)O2)OC1 | – | – | – | – | > 1000 | IC50 (PC3; [5]): > 10000 nM
CNC(=O)O[C@@H](C)/C=C\C(=O)N[C@H]1CO[C@@H](C/C=C(C)/C=C/[C@@H]2C[C@]3(CO3)CC(C)(C)O2)OC1 | – | – | – | – | 900 | IC50 (PC3; PC-3, read-out: PC3 IC50): > 10000 nM
O=C(O)CCCCCCCCCCCNC(=O)NC12CC3CC(CC(C3)C1)C2 [AUDA] | – | – | – | – | – | Interaction Type (SK-MEL-2): Synergism (0.3-0.7); cytotoxicity alone (HeLa; HeLa cells, 15 μM): not cytotoxic; drug interaction with compound 19 (panel of 23 drugs) (cell lines investigated): synergy; cytotoxic effect of drug alone (cell lines investigated; single drug in combination assays): Neither AUDA nor NCND alone produced a cytotoxic effect
CCN(CC)C(=O)O[C@@H](C)/C=C\C(=O)N[C@H]1CO[C@@H](C/C=C(C)/C=C/[C@@H]2C[C@]3(CO3)CC(C)(C)O2)OC1 | – | – | – | – | > 1000 | IC50 (PC3; PC-3, read-out: PC3 IC50): > 10000 nM
CC(/C=C/[C@@H]1C[C@]2(CO2)CC(C)(C)O1)=C\C[C@H]1OC[C@@H](NC(=O)/C=C\[C@H](C)OC(N)=O)CO1 | – | – | – | – | 1900 | IC50 (PC3; [5]): > 10000 nM
C=CCN(/C=C1/C(=O)O[C@H](COC)[C@@]2(C)C1=C(O)C(=O)C1=C2[C@H](OC(C)=O)C[C@]2(C)C(=O)CC[C@@H]12)CC=C [PX-866] | – | – | – | – | – | CI in SK-MEL-2 with compound 19 (SK-MEL-2; Combination Index at ED50, CalcuSyn 2.1, listed drug + compound 19): 0.57; CI of 19 + inhibitor (SK-MEL-2; SK-MEL-2, inhibitor + compound 19): 0.57; Interaction Type (SK-MEL-2): Synergism (0.3-0.7); CI of 19 + inhibitor (HeLa; HeLa, inhibitor + compound 19): 0.49; CI of 19 + inhibitor (PC-3): 0.67; CI of 19 + inhibitor (Sk-N-AS): 0.65; CI of 19 + inhibitor (WiDr): 0.33; drug interaction with compound 20 (cell lines investigated): demonstrated synergy
